Experimental data published in patent publication US20120225889A1, “USE OF MACROCYCLIC LACTONE DERIVATIVES FOR THE TREATMENT OF INFLAMMATORY DISORDERS” (PIRAMAL LIFE SCIENCES LIMITED, priority 2010, published 2012).
Where two headings read alike, the source gives them in different places.

What was measured:
[1] = system: DBA/1J mice with collagen induced arthritis; test: Arthritic mice: administration by osmotic pumps; assay type: in vivo; details: sub-cutaneous osmotic pumps, 240 μg/mouse/24 h, 26 days
Experimental: The experiment was performed in DBA/1J mice, in which arthritis was developed by injection of collagen emulsion, as described in Example 26.
The animals were divided into two groups, viz. a control group and a test compound treated group, having 6 animals each. The clear solution of test compound was prepared in 100% dimethyl sulfoxide (DMSO) and then DMSO concentration was brought down to 25% by addition of appropriate quantities of ethanol and polyethylene glycol 400 (PEG 400), so that the proportion of each solvent in a final solution v/v was 25:15:60::DMSO:EtOH:PEG-400. By this method absolutely clear solution of the compound having a final concentration of 40 mg/mL was obtained. This solution was filtered through 0.2μ filter and was filled in osmotic pumps (Alzet micro-osmotic pump model 1002). The delivery rate of this model of pump is 0.25 μL per hour and it remains functional for 14 days.
These pumps were then implanted sub-cutaneously in the animals of the test compound treated group (240 μg/mouse/24 h). The pumps filled with blank solvent were implanted sub-cutaneously in the animals of control group. Thereafter, their paws were scored for arthritic indices, in addition to measurement of thickness, daily once. After 14 days, the pumps were replaced with freshly filled pumps and the experiment was continued for next 12 days (total 26 days).

[2] = system: IL-6; test: Cytokine release assay in hPBMCs: IL-6; assay type: cell-based; details: Homo sapiens
Experimental: (§1) hPBMCs were obtained from healthy donors by centrifugation of heparinized venous blood over Ficoll/Hypaque solution (Histopaque-1077, Sigma, USA). Isolated hPBMCs were suspended in RPMI 1640 culture medium supplemented with 10% FBS and seeded at a density of 50,000 cells/well in a 96-well plate (Nunc, USA). The cells were incubated at 37° C., 5% CO2 for a period of 24 h. These cells were used for the lymphocyte proliferation as well as cytokine release assay.
(§2) The plated cells were treated with different concentrations of the test compound (prepared as mM stock in DMSO and diluted with DMSO to achieve the following final concentrations in the assay: 100, 10, 1, 0.1, 0.01, 0.001, 0.0001, 0.00001 and 0.000001 μM) and incubated for 30 min. The cells were then stimulated with PHA (prepared as 1 mg/mL stock in RPMI 1640 culture medium and used at a final concentration of 5 μg/mL). FK506 was used as a standard. The plates were incubated at 37° C., 5% CO2 for 48 h. The cytokines in the supernatant collected were detected using ELISA kit (BD biosciences, USA). The cytokines evaluated in the assay were TNF-α, IL-2, IL-6, and IFN-γ.

[3] = system: TNF-α; test: Human monocyte assay (LPS-induced): TNF-α; assay type: cell-based; details: LPS stimulated human monocytes, 5 h
From the text: The assay was designed as in reference, Physiological Research, 52, 593-598, (2003), the disclosure of which is incorporated by reference for the teaching of the assay.
The objective of the assay is to determine whether compounds of the present invention—mediated inhibition of LPS-induced cytokines from monocytic THP-1 cell line translates to physiologically relevant human cells. Accordingly, the effect of compounds of the present invention on LPS—induced cytokine production from freshly isolated human monocytes was ascertained.
Peripheral blood was collected from healthy donors into potassium EDTA vacutainer tubes (BD Biosciences, USA). hPBMCs were isolated using density gradient separation (Histopaque-1077; Sigma, USA) and suspended in assay medium which is RPMI culture medium (Sigma, USA) containing 10% heat inactivated FBS (JRH Biosciences, Australia), 100 U/mL penicillin (Sigma, USA) and […] streptomycin (Sigma, USA). Monocytes in the hPBMCs were counted using a Coulter Counter following which the cells were resuspended at 2×10^5 monocytes/mL of assay medium. A cell suspension containing 2×10^4 monocytes was aliquoted per well of a 96-well plate (Nunc, USA). Subsequently, the hPBMCs were incubated for 4-5 h at 37° C., 5% CO2. […] The IC50 values were calculated by a nonlinear regression method using Graph Pad software (Prism 3.03).

[4] = system: CEBPδ; test: Gene expression profile using RTQ-PCR: CEBPδ; assay type: cell-based, human; details: 3 μM
Experimental: The effect of the compound of example 7 was measured in stimulated untreated cells from the monocytic cell line (THP-1), human monocytes and synovial cells from rheumatoid arthritis patient. The effect of the compound in the THP-1 cell line was measured in terms of gene expression and was expressed as fold changes as compared to the cell stimulated control with no drug treatment.
THP-1 cells, human monocytes and synovial cells were treated with compound of example 7 or vehicle (0.5% DMSO). Total RNA isolation using a commercial RNA extraction kit (Qiagen Corporation, Germany) The first-strand cDNA was synthesized from total RNA using first strand cDNA synthesis kit from Invitrogen Corporation (California, USA). This was followed by real time quantitative polymerase chain reaction (RTQ PCR) using gene specific primers and standard thermal program of initial denaturation at 95° C. for 5 min and cycles of 95° C. for 10 seconds, followed by 60° C. for 30 seconds (Realplex PCR machine from Eppendorf, Germany). Quantitative measurement of products made during PCR cycles was normalized against a housekeeping gene (Actin) and was used to measure the gene expression as fold changes as compared to respective control.

[5] = system: IFN-γ; test: Cytokine release assay in hPBMCs: IFN-γ; assay type: cell-based; details: Homo sapiens
Experimental: as §1, §2

Structure (SMILES): C/C=C/C(O)C(C)/C=C/C(=N\O)C(C)C(O)C(C)C1OC(=O)/C(OC)=C/C(C)=C/C(C)C(O)C(CC)C(O)C(C)C/C(C)=C/C=C/C1OC (stereo not drawn) [Compound of example 7, (3Z,5E,13E,15E)-18-((5Z,6E,10E)-3,9-Dihydroxy-5-(hydroxymino)-4,8-dimethyldodeca-6,10-dien-2-yl)-9-ethyl-8,10-dihydroxy-3,17-dimethoxy-5,7,11,13-tetramethyl oxacyclooctadeca-3,5,13,15-tetraen-2-one]
- severity of arthritis (arthritic scores and paw thickness) [1]: reduces severity of arthritis
- IC50 ([2]; Table 3: PHA-PMA induced hPBMC's, 48 h, read-out: IL-6 IC50): 10 nM
- IC50 ([2]; Table 4: mitogen stimulated production from hPBMC's, read-out: IL-6 (IC50 μM)): 0.007 nM
- IC50 [3]: 10 µM
- CEBPδ gene expression ([4]; Human monocytes, 3 h, ± SE, N = 3): −1.4 + 0.4 log fold change
- CEBPδ gene expression ([4]; Synovial cells, 12 h, N = 1): −1.1 log fold change
- CEBPδ gene expression ([4]; THP-1 cells, 12 h, ± SE, N = 3): −1.8 + 1.0 log fold change
- IC50 ([5]; Table 3: PHA-PMA induced hPBMC's, 48 h, read-out: IFN-γ IC50): 0.02 µM
- IC50 ([5]; Table 4: mitogen stimulated production from hPBMC's, read-out: IFN-γ (IC50 μM)): 0.1 µM
